What was measured:
[1] = target: human CB1 receptors (Homo sapiens (Human), UniProt P21554); test: cAMP assay, CHO cells expressing human CB1 receptors; type: cell-based; conditions: functional cAMP assay, CHO cells expressing human CB1; read-out: CB1 hcAMP EC50
Procedure: (§1) CHO cells expressing human CB1 or CB2 receptors are seeded 17-24 hours prior to the experiment 50.000 cells per well in a black 96 well plate with flat clear bottom (Corning Costar #3904) in DMEM (Invitrogen No. 31331), 1×HT supplement, with 10% fetal calf serum and incubated at 5% CO2 and 37° C. in a humidified incubator. The growth medium was exchanged with Krebs Ringer Bicarbonate buffer with 1 mM IBMX and incubated at 30° C. for 30 min. Compounds were added to a final assay volume of 100 μl and incubated for 30 min at 30° C. Using the cAMP-Nano-TRF detection kit the assay (Roche Diagnostics) was stopped by the addition of 50 μl lysis reagent (Tris, NaCl, 1.5% Triton X100, 2.5% NP40, 10% NaN3) and 50 μl detection solutions (20 μM mAb Alexa700-cAMP 1:1, and 48 μM Ruthenium-2-AHA-cAMP) and shaken for 2 h at room temperature. The time-resolved energy transfer is measured by a TRF reader (Evotec Technologies GmbH), equipped with a ND:YAG laser as excitation source. The plate is measured twice with the excitation at 355 nm and at the emission with a delay of 100 ns and a gate of 100 ns, total exposure time 10 s at 730 (bandwidth 30 nm) or 645 nm (bandwidth 75 nm), respectively. The FRET signal is calculated as follows: FRET=T730-Alexa730-P(T645-B645) with P=Ru730-B730/Ru645-B645, where T730 is the test well measured at 730 nM, T645 is the test well measured at 645 nm, B730 and B645 are the buffer controls at 730 nm and 645 nm, respectively. cAMP content is determined from the function of a standard curve spanning from 10 μM to 0.13 nM cAMP.
(§2) EC50 values were determined using Activity Base analysis (ID Business Solution, Limited). The EC50 values for a wide range of cannabinoid agonists generated from this assay were in agreement with the values published in the scientific literature.

[2] = target: human CB2 receptors (Homo sapiens (Human), UniProt P34972); test: cAMP assay, CHO cells expressing human CB2 receptors; type: cell-based; conditions: functional cAMP assay, read-out: CB2 hcAMP EC50
Procedure: as §1, §2

human CB1 receptors, sequence (P21554 whole entry): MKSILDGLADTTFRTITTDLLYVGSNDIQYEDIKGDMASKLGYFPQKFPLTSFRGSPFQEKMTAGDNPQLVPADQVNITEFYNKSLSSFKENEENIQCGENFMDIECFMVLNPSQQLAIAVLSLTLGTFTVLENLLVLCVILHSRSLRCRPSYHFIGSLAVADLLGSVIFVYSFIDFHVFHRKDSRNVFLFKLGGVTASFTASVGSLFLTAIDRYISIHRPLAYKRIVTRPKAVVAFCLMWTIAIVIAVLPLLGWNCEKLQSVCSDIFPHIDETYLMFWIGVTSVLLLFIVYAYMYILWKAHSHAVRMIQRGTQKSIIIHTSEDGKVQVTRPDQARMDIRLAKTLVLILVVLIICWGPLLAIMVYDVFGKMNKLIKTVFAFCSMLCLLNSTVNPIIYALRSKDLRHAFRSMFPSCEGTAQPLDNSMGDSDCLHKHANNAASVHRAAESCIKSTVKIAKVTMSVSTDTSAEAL
human CB2 receptors, sequence (P34972 whole entry): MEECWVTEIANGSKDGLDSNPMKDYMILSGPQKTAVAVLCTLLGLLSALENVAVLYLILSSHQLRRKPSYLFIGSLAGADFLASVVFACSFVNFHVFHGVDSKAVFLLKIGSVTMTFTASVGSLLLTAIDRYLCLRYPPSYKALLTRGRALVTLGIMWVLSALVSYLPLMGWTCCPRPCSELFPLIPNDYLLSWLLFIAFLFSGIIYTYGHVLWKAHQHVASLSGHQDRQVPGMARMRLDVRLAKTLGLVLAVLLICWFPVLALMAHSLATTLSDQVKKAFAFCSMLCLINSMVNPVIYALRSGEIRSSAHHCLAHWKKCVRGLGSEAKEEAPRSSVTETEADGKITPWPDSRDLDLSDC

| Structure (SMILES) | EC50 [1] | EC50 [2] |
| --- | --- | --- |
| Cc1ccc(-c2nc(C(C)(C)C)nc3c2nnn3Cc2ccccc2Cl)cc1 [Example 1, 5-tert-butyl-3-[(2-chlorophenyl)methyl]-7-(4-methylphenyl)triazolo[4,5-d]pyrimidine] | > 10000 nM | 206 nM |
| CC(C)(C)c1nc(-c2ccc(F)cc2)c2nnn(Cc3ccccc3Cl)c2n1 [Example 2, 5-tert-butyl-3-[(2-chlorophenyl)methyl]-7-(4-fluorophenyl)triazolo[4,5-d]pyrimidine] | > 10000 nM | 28.5 nM |
| COc1ccc(-c2nc(C(C)(C)C)nc3c2nnn3Cc2ccccc2Cl)cc1 [Example 3, 5-tert-butyl-3-[(2-chlorophenyl)methyl]-7-(4-methoxyphenyl)triazolo[4,5-d]pyrimidine] | > 10000 nM | 239 nM |
| CC(C)(C)c1nc(-c2ccccc2F)c2nnn(Cc3ccccc3Cl)c2n1 [Example 4, 5-tert-butyl-3-[(2-chlorophenyl)methyl]-7-(2-fluorophenyl)triazolo[4,5-d]pyrimidine] | > 10000 nM | 65.2 nM |
| CC(C)(C)c1nc(-c2ccc(Cl)cc2F)c2nnn(Cc3ccccc3Cl)c2n1 [Example 5, 5-tert-butyl-7-(4-chloro-2-fluorophenyl)-3-[(2-chlorophenyl)methyl]triazolo[4,5-d]pyrimidine] | > 10000 nM | 88.2 nM |
| CC(C)(C)c1nc(-c2ccc(F)nc2)c2nnn(Cc3ccccc3Cl)c2n1 [Example 6, 5-tert-butyl-3-[(2-chlorophenyl)methyl]-7-(6-fluoropyridin-3-yl)triazolo[4,5-d]pyrimidine] | > 10000 nM | 2.7 nM |
| Cc1ccc(-c2nc(C(C)(C)C)nc3c2nnn3Cc2ccccc2Cl)nc1 [Example 7, 5-tert-butyl-3-[(2-chlorophenyl)methyl]-7-(5-methylpyridin-2-yl)triazolo[4,5-d]pyrimidine] | > 10000 nM | 488 nM |
| Cn1cc(-c2nc(C(C)(C)C)nc3c2nnn3Cc2ccccc2Cl)cn1 [Example 8, 5-tert-butyl-3-[(2-chlorophenyl)methyl]-7-(1-methylpyrazol-4-yl)triazolo[4,5-d]pyrimidine] | > 10000 nM | 17.4 nM |
| Cn1nccc1-c1nc(C(C)(C)C)nc2c1nnn2Cc1ccccc1Cl [Example 9, 5-tert-butyl-3-[(2-chlorophenyl)methyl]-7-(2-methylpyrazol-3-yl)triazolo[4,5-d]pyrimidine] | > 10000 nM | 44.3 nM |
| CC(C)(C)c1nc(-c2ccccc2)c2nnn(Cc3ccccc3Cl)c2n1 [Example 10, 5-tert-butyl-3-[(2-chlorophenyl)methyl]-7-phenyltriazolo[4,5-d]pyrimidine] | > 10000 nM | 80.2 nM |
| Cc1oncc1-c1nc(C(C)(C)C)nc2c1nnn2Cc1ccccc1Cl [Example 11, 4-[5-tert-butyl-3-[(2-chlorophenyl)methyl]triazolo[4,5-d]pyrimidin-7-yl]-5-methyl-1,2-oxazole] | > 10000 nM | 76.5 nM |
| Cn1nccc1-c1nc(C(C)(C)C)nc2c1nnn2Cc1ccccc1S(C)(=O)=O [Example 12, 5-tert-butyl-7-(2-methylpyrazol-3-yl)-3-[(2-methylsulfonylphenyl)methyl]triazolo[4,5-d]pyrimidine] | > 10000 nM | 3 nM |
| Cn1nccc1-c1nc(C(C)(C)C)nc2c1nnn2Cc1nnnn1C [Example 13, 5-tert-butyl-7-(2-methylpyrazol-3-yl)-3-[(1-methyltetrazol-5-yl)methyl]triazolo[4,5-d]pyrimidine] | > 10000 nM | 33.3 nM |
| Cc1nonc1Cn1nnc2c(-c3ccnn3C)nc(C(C)(C)C)nc21 [Example 14, 3-[[5-tert-butyl-7-(2-methylpyrazol-3-yl)triazolo[4,5-d]pyrimidin-3-yl]methyl]-4-methyl-1,2,5-oxadiazole] | > 10000 nM | 1.3 nM |
| Cc1nnc(Cn2nnc3c(-c4ccnn4C)nc(C(C)(C)C)nc32)o1 [Example 15, 2-[[5-tert-butyl-7-(2-methylpyrazol-3-yl)triazolo[4,5-d]pyrimidin-3-yl]methyl]-5-methyl-1,3,4-oxadiazole] | > 10000 nM | 317 nM |
| Cn1nccc1-c1nc(C(C)(C)C)nc2c1nnn2CC(O)CC(F)(F)F (stereo not drawn) [Example 16, 1-[5-tert-butyl-7-(2-methylpyrazol-3-yl)triazolo[4,5-d]pyrimidin-3-yl]-4,4,4-trifluorobutan-2-ol] | > 10000 nM | 42.4 nM |
| Cn1nccc1-c1nc(C(C)(C)C)nc2c1nnn2C[C@H](O)C(F)(F)F [Example 17, (2S)-3-[5-tert-butyl-7-(2-methylpyrazol-3-yl)triazolo[4,5-d]pyrimidin-3-yl]-1,1,1-trifluoropropan-2-ol] | > 10000 nM | 77.2 nM |
| Cn1nccc1-c1nc(C(C)(C)C)nc2c1nnn2C1CCOC1 (stereo not drawn) [Example 18, 5-tert-butyl-7-(2-methylpyrazol-3-yl)-3-(oxolan-3-yl)triazolo[4,5-d]pyrimidine] | > 10000 nM | 86 nM |
| Cn1nccc1-c1nc(C(C)(C)C)nc2c1nnn2C1COC1 [Example 19, 5-tert-butyl-7-(2-methylpyrazol-3-yl)-3-(oxetan-3-yl)triazolo[4,5-d]pyrimidine] | > 10000 nM | 190 nM |
| Cn1nccc1-c1nc(C(C)(C)C)nc2c1nnn2Cc1ncccc1Cl [Example 21, 5-tert-butyl-3-[(3-chloropyridin-2-yl)methyl]-7-(2-methylpyrazol-3-yl)triazolo[4,5-d]pyrimidine] | > 10000 nM | 39.5 nM |
| Cn1nccc1-c1nc(C(C)(C)C)nc2c1nnn2CC(C)(C)O [Example 22, 1-[5-tert-butyl-7-(2-methylpyrazol-3-yl)triazolo[4,5-d]pyrimidin-3-yl]-2-methylpropan-2-ol] | > 10000 nM | 206 nM |
| Cn1nccc1-c1nc(C(C)(C)C)nc2c1nnn2CC1(C)COC1 [Example 23, 5-tert-butyl-3-[(3-methyloxetan-3-yl)methyl]-7-(2-methylpyrazol-3-yl)triazolo[4,5-d]pyrimidine] | > 10000 nM | 445 nM |
| Cn1cc(-c2nc(C(C)(C)C)nc3c2nnn3Cc2nnnn2C)cn1 [Example 24, 5-tert-butyl-7-(1-methylpyrazol-4-yl)-3-[(1-methyltetrazol-5-yl)methyl]triazolo[4,5-d]pyrimidine] | > 10000 nM | 156 nM |
| Cn1nnnc1Cn1nnc2c(-c3cn[nH]c3)nc(C(C)(C)C)nc21 [Example 25, 5-tert-butyl-3-[(1-methyltetrazol-5-yl)methyl]-7-(1H-pyrazol-4-yl)triazolo[4,5-d]pyrimidine] | > 10000 nM | 32 nM |
| Cn1nnnc1Cn1nnc2c(-c3cc[nH]n3)nc(C(C)(C)C)nc21 [Example 26, 5-tert-butyl-3-[(1-methyltetrazol-5-yl)methyl]-7-(1H-pyrazol-3-yl)triazolo[4,5-d]pyrimidine] | > 10000 nM | 578 nM |
| Cc1oncc1-c1nc(C(C)(C)C)nc2c1nnn2Cc1nnnn1C [Example 27, 4-[5-tert-butyl-3-[(1-methyltetrazol-5-yl)methyl]triazolo[4,5-d]pyrimidin-7-yl]-5-methyl-1,2-oxazole] | > 10000 nM | 515 nM |
| Cn1nnnc1Cn1nnc2c(-c3ncc[nH]3)nc(C(C)(C)C)nc21 [Example 28, 5-tert-butyl-7-(1H-imidazol-2-yl)-3-[(1-methyltetrazol-5-yl)methyl]triazolo[4,5-d]pyrimidine] | > 10000 nM | 12.5 nM |

From US10183946B2, “Triazolo[4,5-D]pyrimidines” (Hoffmann—La Roche Inc., priority 2014, dated 2019)
